Experimental findings from patent US11327083B2, “Treatment and differential diagnosis of Cushing's disease and ectopic Cushing's syndrome” (Corcept Therapeutics, Inc., priority 2016, dated 2022) are described below.

Experiment [1] concerns patients having Ectopic Cushing's Syndrome. Briefly: Mean plasma cortisol to ACTH (C:A) ratio during mifepristone treatment, patients having Ectopic Cushing's Syndrome. The experiment is classed as in vivo, human. As to the method: (§1) Two groups of patients, which have been previously diagnosed as having Cushing's Disease, Ectopic Cushing's Syndrome using other methods, were enrolled in the study. The investigators were blind to the patients' diagnoses. Blood samples were obtained from each patient within 6 weeks prior to the enrollment in the study (“Day 1” samples). The patients were treated with mifepristone at a starting dose 300 mg daily, increased up to 1200 mg or 20 mg/kg over a period of 10 weeks. The mifepristone treatment continued for a total period of 24 weeks. Blood samples were taken during the course of the treatment, i.e., at the end of 14 days, and 6, 10, 16 and 24 weeks from the initial dose of mifepristone was given. All samples were taken at between 8-10 am on the day of the study. The ACTH levels and the cortisol levels of the plasma produced from the blood samples collected above were assayed using two-site immunometric assays (Mayo Clinic, Test ID ACTH) following the manufacturer's instructions.

Experiment [2] deals with patients having Cushing's Disease. Briefly: Mean plasma cortisol to ACTH (C:A) ratio during mifepristone treatment, patients having Cushing's Disease. The experiment is classed as in vivo, human. As to the method:
as §1

[3] abbreviates: Ectopic patients (n = 3), plasma, 8-10 am, mifepristone 300 mg daily increased up to 1200 mg or 20 mg/kg, Day 1 baseline mean 18.552.
Setting [4] is: CD patients (n = 38), plasma, 8-10 am, mifepristone 300 mg daily increased up to 1200 mg or 20 mg/kg, Day 1 baseline mean 3.018.

As for `CC#C[C@]1(O)CC[C@H]2[C@@H]3CCC4=CC(=O)CCC4=C3[C@@H](c3ccc(N(C)C)cc3)C[C@@]21C` [mifepristone, 17-β-hydrox-11-β-(4-dimethyl-aminophenyl)17-α-(1-propynyl)estra-4,9-dien-3-one], the “mean GRA-exposed C:A ratio as % of the baseline ratio” value in experiment [1] (Ectopic Cushing's Syndrome patients, end of 24 weeks treatment) was determined as 11.6%. In addition, in experiment [1] (Ectopic Cushing's Syndrome patients, end of the six weeks' treatment), the “mean GRA-exposed C:A ratio as % of the mean baseline ratio” value is “less than 50%”. The entries for the “mean ratio of cortisol to ACTH, Week 6” value in experiment [1] (setting [3]) and in experiment [2] (setting [4]) were 9.241 and 3.396, respectively. Also, the “mean ratio of cortisol to ACTH, Week 10” value in experiment [1] (setting [3]) is listed as 6.722; in experiment [2] (CD patients (n = 33), plasma, 8-10 am, mifepristone 300 mg daily increased up to 1200 mg or 20 mg/kg, Day 1 baseline mean 3.018) it was 6.852. The “mean ratio of cortisol to ACTH, Week 16” value in experiment [1] (setting [3]) is 0.600; in experiment [2] (CD patients (n = 32), plasma, 8-10 am, mifepristone 300 mg daily increased up to 1200 mg or 20 mg/kg, Day 1 baseline mean 3.018) it was 5.788. For the same compound, the “mean ratio of cortisol to ACTH, Week 24/ET” value turned out to be 2.154 in experiment [1] (setting [3]) and 4.999 in experiment [2] (setting [4]). The “mean GRA-exposed C:A ratio relative to the mean baseline C:A ratio (peak)” value in experiment [2] (Cushing's Disease patients, peak at the end of 10 weeks of mifepristone treatment) was “more than 2 fold”.
